Activity calls are given as the source filed them.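 How the source made its calls: active means mean IC50 below 20 µM in each of the two panels, so potent in both; inactive means the rest.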
Target: Neuropilin-1 (Homo sapiens) (UniProt O14786)
Test: blockers of CendR peptide binding to NRP-1 – biochemical, FP and AlphaScreen panel, dose response (AID 651650)
Conditions: NRP-1 b1b2 / RPARPAR peptide binding, FP or AlphaScreen
[1] = AlphaScreen, run 1, individual panel run IC50
[2] = FP, run 1, individual panel run IC50
[3] = FP, run 2, individual panel run IC50

Sequence of Neuropilin-1 (Homo sapiens) (O14786 whole entry, looked up): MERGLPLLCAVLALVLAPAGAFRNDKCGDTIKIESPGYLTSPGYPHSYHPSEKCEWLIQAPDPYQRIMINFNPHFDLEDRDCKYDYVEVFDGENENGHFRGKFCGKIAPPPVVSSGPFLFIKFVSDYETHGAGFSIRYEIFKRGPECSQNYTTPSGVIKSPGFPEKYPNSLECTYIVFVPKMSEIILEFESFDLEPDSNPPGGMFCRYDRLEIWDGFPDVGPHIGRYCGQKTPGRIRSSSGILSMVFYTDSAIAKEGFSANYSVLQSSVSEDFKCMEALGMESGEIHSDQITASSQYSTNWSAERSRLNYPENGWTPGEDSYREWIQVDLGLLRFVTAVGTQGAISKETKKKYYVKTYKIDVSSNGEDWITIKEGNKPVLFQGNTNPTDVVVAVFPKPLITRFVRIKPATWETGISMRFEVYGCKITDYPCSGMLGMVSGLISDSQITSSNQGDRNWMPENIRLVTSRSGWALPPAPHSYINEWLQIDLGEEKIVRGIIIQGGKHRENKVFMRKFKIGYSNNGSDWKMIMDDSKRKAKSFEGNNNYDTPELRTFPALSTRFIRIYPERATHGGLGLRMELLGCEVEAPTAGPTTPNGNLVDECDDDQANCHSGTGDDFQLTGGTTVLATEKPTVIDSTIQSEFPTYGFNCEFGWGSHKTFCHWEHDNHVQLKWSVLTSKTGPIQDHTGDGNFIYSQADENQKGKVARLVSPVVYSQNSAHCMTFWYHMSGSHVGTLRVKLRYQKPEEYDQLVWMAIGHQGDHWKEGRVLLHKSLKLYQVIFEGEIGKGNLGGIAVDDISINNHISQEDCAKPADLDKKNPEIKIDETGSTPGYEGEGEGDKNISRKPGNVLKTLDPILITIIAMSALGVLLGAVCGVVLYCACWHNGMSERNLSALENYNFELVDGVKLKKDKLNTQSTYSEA

| SMILES | IC50 (AlphaScreen, mean of runs) | IC50 [1] [µM] | IC50 (FP, mean of runs) | IC50 [2] [µM] | IC50 [3] [µM] |
| --- | --- | --- | --- | --- | --- |
| COc1cc(Cn2nnc3ccccc32)cc(Br)c1O | > 100 µM (inactive) | > 100 | > 95 µM (inactive) | > 95 | > 95 |
| Cc1cc(C)n(-c2nnc3n2N=C(c2c[nH]c4ccccc24)CS3)n1 | > 100 µM (inactive) | > 100 | > 95 µM (inactive) | > 95 | > 95 |
| CNC(=O)NC(=O)C(C)OC(=O)c1c(C)noc1C (stereo not given) | inactive | 82 | > 95 µM (inactive) | > 95 | > 95 |
| CC(C)(C)c1nc(SCC(=O)NCc2ccco2)c2ccccc2n1 | inactive | 28 | > 95 µM (inactive) | > 95 | > 95 |
| O=C1N[C@H](Cc2c[nH]c3ccccc23)COC(=O)[C@H](Cc2ccc(F)cc2)C/C=C\C[C@H]1CC(=O)N(CCO)Cc1ccccc1 | 15 µM | 15 | > 95 µM (inactive) | > 95 | > 95 |
| CCOC(=O)N1CCN(C(=O)Nc2ccc3nc(C)c(C)nc3c2)CC1 | > 100 µM (inactive) | > 100 | > 95 µM (inactive) | > 95 | > 95 |
| N/C(CSc1ccc(Cl)cc1)=N\S(=O)(=O)c1ccc(Cl)cc1 | > 100 µM (inactive) | > 100 | > 95 µM (inactive) | > 95 | > 95 |
| O=C(NCCN1CCN(C(=O)c2cccc(OC(F)F)c2)CC1)c1cccc(OC(F)F)c1 | > 100 µM (inactive) | > 100 | > 95 µM (inactive) | > 95 | > 95 |
| CCNC(=O)C1(C)CCCN(C(=O)c2nc(C)oc2C)C1 (stereo not given) | > 100 µM (inactive) | > 100 | > 95 µM (inactive) | > 95 | > 95 |
| Cc1nnc(SC(C)C(=O)Nc2ccc(S(=O)(=O)NC3CCCCC3)cc2)s1 (stereo not given) | > 100 µM (inactive) | > 100 | > 95 µM (inactive) | > 95 | > 95 |
| CCCS(=O)(=O)N1CCC(C(=O)NC2CCCC(C)C2C)CC1 (stereo not given) | 17.5 µM | 17.5 | > 95 µM (inactive) | > 95 | > 95 |
| NC(=O)C1CCN(c2nc(-c3ccc4occc(=O)c4c3)cs2)CC1 | > 100 µM (inactive) | > 100 | > 95 µM (inactive) | > 95 | > 95 |
| CCOC(=O)C[C@H]1c2cc(C(F)(F)F)ccc2S(=O)(=O)N1Cc1ccccc1 | > 100 µM (inactive) | > 100 | > 95 µM (inactive) | > 95 | > 95 |
| Cc1ccc(S(=O)(=O)NCC(=O)N(c2ccccc2)C(C(=O)NCc2ccccc2)c2ccco2)cc1 (stereo not given) | > 100 µM (inactive) | > 100 | > 95 µM (inactive) | > 95 | > 95 |
| Cc1ccccc1/C=C/c1nc2ccccc2c(=O)n1CCc1ccccc1 | > 100 µM (inactive) | > 100 | > 95 µM (inactive) | > 95 | > 95 |
| Cc1ccc(Cl)cc1N1CCN(C(=O)c2cccc3c(=O)c(C)c(-c4ccccc4)oc23)CC1 | > 100 µM (inactive) | > 100 | inactive | 26.6 | > 95 |
| Cn1c(=NC(=O)COc2ccccc2)sc2ccccc21 | > 100 µM (inactive) | > 100 | > 95 µM (inactive) | > 95 | > 95 |
| COc1ccc([C@H]2/C=C\CN(S(C)(=O)=O)[C@@H](C)C(=O)N2Cc2ccc(F)cc2)cc1 | > 100 µM (inactive) | > 100 | > 95 µM (inactive) | > 95 | > 95 |
| Cc1ccc(NC=C(S(=O)(=O)c2ccccc2)S(=O)(=O)c2ccccc2)cc1 | > 100 µM (inactive) | > 100 | > 95 µM (inactive) | > 95 | > 95 |
| Cc1ccc(C(=O)N/C(=C\c2sccc2C)C(=O)NCc2ccco2)cc1 | inactive | 92 | > 95 µM (inactive) | > 95 | > 95 |
| COc1ccc(C(CNc2ccc(S(=O)(=O)N3CCCC3)cc2[N+](=O)[O-])N2CCCC2)cc1 (stereo not given) | 12.2 µM | 12.2 | > 95 µM (inactive) | > 95 | > 95 |
| CCC1C2Cc3ccc(O)cc3C1(CC)CCN2C (stereo not given) | > 100 µM (inactive) | > 100 | > 95 µM (inactive) | > 95 | > 95 |

| SMILES | IC50 (AlphaScreen, mean of runs) | IC50 [1] [µM] | IC50 (FP, mean of runs) | IC50 [2] [µM] | IC50 [3] [µM] |
| --- | --- | --- | --- | --- | --- |
| CC1(C)c2ccccc2C(=O)c2ccccc21 | > 100 µM (inactive) | > 100 | > 95 µM (inactive) | > 95 | > 95 |
| O=C(CCC(=O)Nc1ccccc1Cl)NN=C1CCCC1 | inactive | 43.4 | > 95 µM (inactive) | > 95 | > 95 |
| COCc1cccc(-c2csc(C(C)(O)c3ccccc3)n2)c1 (stereo not given) | > 100 µM (inactive) | > 100 | > 95 µM (inactive) | > 95 | > 95 |
| O=C(CSc1nnc(Cc2ccccc2)n1Cc1ccccc1)NCc1ccco1 | > 100 µM (inactive) | > 100 | > 95 µM (inactive) | > 95 | > 95 |
| COc1cccc(-c2ccc3c(c2)N(Cc2ccccc2OC)C(=O)C(C)S3)c1 (stereo not given) | > 100 µM (inactive) | > 100 | > 95 µM (inactive) | > 95 | > 95 |
| NC(=O)C(c1ccc(Cl)cc1Cl)c1ncc(C(F)(F)F)cc1Cl (stereo not given) | > 100 µM (inactive) | > 100 | > 95 µM (inactive) | > 95 | > 95 |
| COc1cccc(C(=O)N2N=C(c3ccccc3)CC2(O)C(F)(F)F)c1 (stereo not given) | > 100 µM (inactive) | > 100 | > 95 µM (inactive) | > 95 | > 95 |
| COc1cccc(NC(=O)CSc2nc(O)c(C)c(=O)n2-c2ccc(C)cc2)c1 | > 100 µM (inactive) | > 100 | inactive | 20.1 | > 95 |
| Cc1ccccc1NC(=S)NC(=O)COc1ccccc1C | 6.67 µM | 6.67 | inactive | 32.6 | 35 |
| COc1ccc(S(=O)(=O)N2CCCCC2)cc1NC(=O)c1c(F)cccc1Cl | > 100 µM (inactive) | > 100 | > 95 µM (inactive) | > 95 | > 95 |
| CCOC(=O)c1ccc(NC(=O)CN2CCc3ccccc3C2)cc1 | > 100 µM (inactive) | > 100 | > 95 µM (inactive) | > 95 | > 95 |
| Cc1ccc(NC(=O)c2ccc3c(c2)S(=O)(=O)c2ccccc2C3=O)cc1S(=O)(=O)N1CCOCC1 | > 100 µM (inactive) | > 100 | > 95 µM (inactive) | > 95 | > 95 |
| COc1cccc(N2[C@@H](CC(C)=O)c3ccc(/C=C/C(C)=O)cc3S2(=O)=O)c1 | > 100 µM (inactive) | > 100 | > 95 µM (inactive) | > 95 | > 95 |
| CN1C[C@H](CO)C=C2c3cccc4[nH]cc(c34)C[C@H]21 | 14.4 µM | 14.4 | > 95 µM (inactive) | > 95 | > 95 |
| C[C@@H](NC(=O)c1[nH]cnc1C(=O)Nc1cccc(Cl)c1)c1ccccc1 | inactive | 21.8 | > 95 µM (inactive) | > 95 | > 95 |
| N=C1C(=O)OCC1c1cc(Cl)ccc1NC(=O)Nc1ccccc1 (stereo not given) | inactive | 90.5 | > 95 µM (inactive) | > 95 | > 95 |
| O=C(CSc1nc(O)c(Cc2ccccc2)c(=O)n1-c1ccccc1)N1CCOCC1 | > 100 µM (inactive) | > 100 | > 95 µM (inactive) | > 95 | > 95 |
| COc1ccc(C(=O)COC(=O)C(CCSC)NS(=O)(=O)c2ccc(Cl)cc2)cc1 (stereo not given) | > 100 µM (inactive) | > 100 | > 95 µM (inactive) | > 95 | > 95 |
| O=[N+]([O-])c1ccc(Nc2nc(NC3CCCCC3)nc(N3CCCC3)n2)cc1 | > 100 µM (inactive) | > 100 | > 95 µM (inactive) | > 95 | > 95 |
| CC(=O)NCCNc1nc(NC(C)C)nc2ccsc12 | > 100 µM (inactive) | > 100 | > 95 µM (inactive) | > 95 | > 95 |
| CCN(C[C@H]1N[C@@](CC)(C(=O)OC)[C@H]2C(=O)N(C)C(=O)[C@@H]12)S(=O)(=O)c1ccc(OC)cc1 | > 100 µM (inactive) | > 100 | > 95 µM (inactive) | > 95 | > 95 |
| CCN(CC)C(=O)C1CCCN(C(=O)Nc2ccc3nsnc3c2)C1 (stereo not given) | > 100 µM (inactive) | > 100 | > 95 µM (inactive) | > 95 | > 95 |
